From paper PMC6016474, “Structural and functional determination of homologs of the Mycobacterium tuberculosis N-acetylglucosamine-6-phosphate deacetylase (NagA)” (The Journal of Biological Chemistry, 2018)

Legend:
MSNagA = target: T1, MSNagA (Mycolicibacterium smegmatis, UniProt A0QU89, D267A); assay: X-ray co-crystal structure, […] Å; type: binding; conditions: active site of chain A at dimer interface, Zn and Cd modelled, ligand occupancy 0.75
T1 construct: gene nagA; full-length, 385 residues, N-terminal His6 tag; expressed in M. smegmatis mc2 4517 (pYUB1062) for wild-type rows, in E. coli (pET28a) for D267A
T1 sequence (A0QU89 1-385 D267A): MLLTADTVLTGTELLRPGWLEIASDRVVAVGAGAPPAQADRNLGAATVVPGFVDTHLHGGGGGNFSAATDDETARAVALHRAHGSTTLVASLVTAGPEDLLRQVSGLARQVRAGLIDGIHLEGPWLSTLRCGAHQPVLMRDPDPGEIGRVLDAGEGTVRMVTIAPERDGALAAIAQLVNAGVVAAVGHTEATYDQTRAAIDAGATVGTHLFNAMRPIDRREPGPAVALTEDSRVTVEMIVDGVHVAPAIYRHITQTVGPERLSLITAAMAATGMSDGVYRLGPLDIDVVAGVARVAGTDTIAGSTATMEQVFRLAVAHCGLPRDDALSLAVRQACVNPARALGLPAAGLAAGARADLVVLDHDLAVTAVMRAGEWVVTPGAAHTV

MMNagA = target: T2, MMNagA (Mycobacterium marinum, UniProt B2HDT2); conditions: read-out: MST Kd; binder
T2 construct: gene nagA; full-length from gDNA, N-terminal His6 tag (pET28a, NdeI/HindIII), E. coli BL21(DE3) with Mtb GroES chaperone
T2 sequence (B2HDT2 entry or part of it): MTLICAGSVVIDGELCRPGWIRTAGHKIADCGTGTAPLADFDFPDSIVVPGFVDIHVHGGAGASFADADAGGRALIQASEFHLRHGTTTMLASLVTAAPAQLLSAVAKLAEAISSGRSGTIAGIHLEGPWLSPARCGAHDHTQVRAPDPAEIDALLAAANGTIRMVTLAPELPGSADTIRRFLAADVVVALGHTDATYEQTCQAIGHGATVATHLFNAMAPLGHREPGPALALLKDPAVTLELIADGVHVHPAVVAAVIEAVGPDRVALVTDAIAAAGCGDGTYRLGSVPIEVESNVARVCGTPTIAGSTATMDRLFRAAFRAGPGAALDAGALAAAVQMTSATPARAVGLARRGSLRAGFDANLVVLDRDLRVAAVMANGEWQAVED

| SMILES | X-ray co-crystal structure, 2.0 Å (MSNagA) | Kd (MMNagA) [µM] |
| --- | --- | --- |
| CC(=O)N[C@H]1C(O)O[C@H](COP(=O)(O)O)[C@@H](O)[C@@H]1O (stereo partly drawn) [GlcNAc6P] | 6FV4 for the GlcNAc6P-MSNagA co-crystal structure | 1200 ± 50 |
| CC(=O)N[C@@H]1C(O)O[C@H](COP(=O)(O)O)[C@@H](O)[C@@H]1O (stereo partly drawn) [ManNAc6P] | – | 3800 ± 300 |
